{"source": "paper PMC11198769", "about": "“Enhancement of transcription efficiency by TAR-Tat system increases the functional expression of human olfactory receptors” (PLOS ONE, 2024)", "assay_in_all_cases": "Comprehensive analysis (screening) of hORs against n-hexanal", "format_in_all_cases": "cell-based", "key": {"OR5P3": {"molecular_target": "T1, OR5P3 (Homo sapiens, UniProt Q8WZ94)", "T1 construct": "Lucy tag (N); FLAG (N); Rho tag (N); expressed in transfected cells; host or cells: Flp-In T-REx-293 cells stably expressing RTP1S, Gαolf and Ric8-b", "T1 sequence (Q8WZ94 1-311)": "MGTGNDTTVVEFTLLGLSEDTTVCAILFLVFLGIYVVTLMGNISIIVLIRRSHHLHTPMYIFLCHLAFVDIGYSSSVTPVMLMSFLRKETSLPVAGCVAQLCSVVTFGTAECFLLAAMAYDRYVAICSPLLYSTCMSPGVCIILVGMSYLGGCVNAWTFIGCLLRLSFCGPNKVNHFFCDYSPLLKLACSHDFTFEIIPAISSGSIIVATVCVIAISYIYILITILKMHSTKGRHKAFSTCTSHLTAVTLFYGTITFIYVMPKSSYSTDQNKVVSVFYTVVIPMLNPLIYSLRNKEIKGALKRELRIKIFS", "details": "OR5P3, 500 μM n-hexanal, n = 1"}, "OR4K5": {"molecular_target": "T2, OR4K5 (Homo sapiens, UniProt Q8NGD3)", "T2 construct": "Lucy tag (N); FLAG (N); Rho tag (N); expressed in transfected cells; host or cells: Flp-In T-REx-293 cells stably expressing RTP1S, Gαolf and Ric8-b", "T2 sequence (Q8NGD3 1-323)": "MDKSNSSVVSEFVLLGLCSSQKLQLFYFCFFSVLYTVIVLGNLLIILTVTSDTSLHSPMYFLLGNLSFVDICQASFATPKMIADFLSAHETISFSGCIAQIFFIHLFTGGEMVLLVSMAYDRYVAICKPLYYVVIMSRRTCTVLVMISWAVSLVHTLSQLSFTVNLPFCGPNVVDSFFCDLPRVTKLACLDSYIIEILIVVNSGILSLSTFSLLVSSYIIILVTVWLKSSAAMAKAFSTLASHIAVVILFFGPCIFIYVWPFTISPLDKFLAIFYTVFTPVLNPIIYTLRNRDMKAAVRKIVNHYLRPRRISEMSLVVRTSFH", "details": "OR4K5, 500 μM n-hexanal, with the TAR-Tat system (hOR/pHEK), n = 1"}, "OR2B3": {"molecular_target": "T3, OR2B3 (Homo sapiens, UniProt O76000)", "T3 construct": "Lucy tag (N); FLAG (N); Rho tag (N); expressed in transfected cells; host or cells: Flp-In T-REx-293 cells stably expressing RTP1S, Gαolf and Ric8-b", "T3 sequence (O76000 1-313)": "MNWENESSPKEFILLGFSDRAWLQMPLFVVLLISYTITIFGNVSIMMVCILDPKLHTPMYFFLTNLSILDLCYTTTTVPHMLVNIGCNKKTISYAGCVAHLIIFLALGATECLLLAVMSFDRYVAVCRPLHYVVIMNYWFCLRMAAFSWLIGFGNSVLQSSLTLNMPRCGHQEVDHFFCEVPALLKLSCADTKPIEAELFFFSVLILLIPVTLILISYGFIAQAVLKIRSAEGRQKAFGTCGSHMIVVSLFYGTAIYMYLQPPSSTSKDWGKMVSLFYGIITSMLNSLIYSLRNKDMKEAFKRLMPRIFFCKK", "details": "OR2B3, 500 μM n-hexanal, with the TAR-Tat system (hOR/pHEK), n = 1"}, "OR2W1": {"molecular_target": "T4, OR2W1 (Homo sapiens, UniProt Q9Y3N9)", "T4 construct": "Lucy tag (N); FLAG (N); Rho tag (N); expressed in transfected cells; host or cells: Flp-In T-REx-293 cells stably expressing RTP1S, Gαolf and Ric8-b", "T4 sequence (Q9Y3N9 1-320)": "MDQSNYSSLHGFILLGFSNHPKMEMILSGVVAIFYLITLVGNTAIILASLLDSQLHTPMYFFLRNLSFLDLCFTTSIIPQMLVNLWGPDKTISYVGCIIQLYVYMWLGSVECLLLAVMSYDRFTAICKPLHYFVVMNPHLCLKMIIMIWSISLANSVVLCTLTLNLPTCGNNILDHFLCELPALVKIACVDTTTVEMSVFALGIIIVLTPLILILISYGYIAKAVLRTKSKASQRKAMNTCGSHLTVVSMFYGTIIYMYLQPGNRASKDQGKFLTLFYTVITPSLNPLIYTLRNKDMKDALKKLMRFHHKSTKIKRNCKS", "details": "OR2W1, 500 μM n-hexanal, n = 1"}, "OR8B3": {"molecular_target": "T5, OR8B3 (Homo sapiens, UniProt Q8NGG8)", "T5 construct": "Lucy tag (N); FLAG (N); Rho tag (N); expressed in transfected cells; host or cells: Flp-In T-REx-293 cells stably expressing RTP1S, Gαolf and Ric8-b", "T5 sequence (Q8NGG8 1-313)": "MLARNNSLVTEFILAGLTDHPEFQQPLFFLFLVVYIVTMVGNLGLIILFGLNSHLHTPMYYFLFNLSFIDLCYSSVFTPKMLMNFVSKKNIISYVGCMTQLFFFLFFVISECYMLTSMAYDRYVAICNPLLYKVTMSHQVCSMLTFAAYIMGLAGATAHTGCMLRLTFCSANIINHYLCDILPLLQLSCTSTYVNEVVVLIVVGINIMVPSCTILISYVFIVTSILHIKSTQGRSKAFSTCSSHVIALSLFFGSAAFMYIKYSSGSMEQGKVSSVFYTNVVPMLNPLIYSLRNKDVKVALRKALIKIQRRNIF", "details": "OR8B3, 500 μM n-hexanal, with the TAR-Tat system (hOR/pHEK), n = 1"}, "[1]": {"details": "with the TAR-Tat system (hOR/pHEK)"}, "[2]": {"details": "without the TAR-Tat system (control plasmid)"}}, "data": [{"smiles": "CCCCCC=O", "note": "[n-hexanal]", "values": [{"measurement": "response value (ΔL)", "setting": "OR5P3; [1]", "result": 2931}, {"measurement": "response value (ΔL)", "setting": "OR5P3; [2]", "result": 740}, {"measurement": "response value (ΔL)", "setting": "OR4K5", "result": "> 500"}, {"measurement": "response value (ΔL)", "setting": "OR2B3", "result": "> 500"}, {"measurement": "response value (ΔL)", "setting": "OR2W1; [1]", "result": 9310}, {"measurement": "response value (ΔL)", "setting": "OR2W1; [2]", "result": 3463}, {"measurement": "response value (ΔL)", "setting": "OR8B3", "result": "> 500"}]}]}
